From patent publication US8816082B2, “Heterocyclyl-pyridinyl-based biphosphonic acid, pharmaceutically acceptable salt thereof, composition thereof and method of use thereof” (The Royal Institution for the Advancement of …, priority 2010, dated 2014)
Where two headings read alike, the source gives them in different places.

What was measured:
[1] = molecular target: T1, human farnesyl pyrophosphate synthase (hFPPS) (Homo sapiens, UniProt P14324); test: In vitro enzymatic inhibition assay for hFPPS, initial screening conditions (partly purified enzyme, 5 min pre-incubation); type: biochemical
T1 sequence (P14324 1-419): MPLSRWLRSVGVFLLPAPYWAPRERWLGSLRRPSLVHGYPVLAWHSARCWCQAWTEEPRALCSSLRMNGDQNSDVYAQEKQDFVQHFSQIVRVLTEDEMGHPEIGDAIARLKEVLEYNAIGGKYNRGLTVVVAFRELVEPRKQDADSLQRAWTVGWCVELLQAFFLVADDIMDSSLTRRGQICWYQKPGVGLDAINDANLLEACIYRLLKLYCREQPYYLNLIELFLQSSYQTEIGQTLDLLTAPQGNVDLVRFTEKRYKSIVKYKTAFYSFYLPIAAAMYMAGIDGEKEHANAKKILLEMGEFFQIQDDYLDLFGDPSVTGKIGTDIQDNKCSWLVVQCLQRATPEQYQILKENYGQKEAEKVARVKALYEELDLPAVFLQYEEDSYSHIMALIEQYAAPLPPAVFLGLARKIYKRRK

[2] = system: multiple myeloma JJN3 cells; test: Anti-proliferation assay (MTT), multiple myeloma JJN3 cells; type: cell-based; details: Homo sapiens
Procedure: (§1) In addition, select compounds were tested in anti-proliferation assays using multiple myeloma JJN3 cells and breast cancer MCF-7 cells. Cells were cultured with either an hFPPS inhibitor (i.e. representative Examples 1 to 42) at increasing concentrations (from 10 nM to 100 μM) or a vehicle control.

[3] = system: breast cancer MCF-7 cells; test: Anti-proliferation assay (MTT), breast cancer MCF-7 cells; type: cell-based; details: Homo sapiens, MCF7, read-out: % inhibition of breast cancer MCF-7 cell proliferation at 50 μM inhibitor, 24 h, vs vehicle control, averages of four determinations
Procedure: as §1

hFPPS [4] = molecular target: T2, hFPPS (Homo sapiens, UniProt P14324); test: hFPPS IC50 determination under more optimised conditions (Table 4)
T2 sequence (P14324 1-419): T1 sequence (P14324 1-419)

hFPPS [5] = molecular target: T2, hFPPS; test: hFPPS inhibition, high throughput mode at fixed concentration, more optimized assay (purer hFPPS, 10 min pre-incubation); details: read-out: % Inhibition at 1 μM
[6] = system: NCI-H460 cells (lung large cell carcinoma); test: Cell growth inhibition assay (MTT), NCI-H460 cells; type: cell-based; details: Homo sapiens, 96 h, 4 days, preliminary data, read-out: EC50 (inhibition of cell proliferation)
[7] = JJN-3, read-out: % inhibition of MM JJN3 cell proliferation at 50 μM inhibitor, 24 h, vs vehicle control, averages of four determinations
[8] = JJN-3, read-out: % inhibition of MM JJN3 cell proliferation at 50 μM inhibitor, 48 h, vs vehicle control, averages of four determinations

Compound | inhibition at 1 µM (hFPPS [5]) | inhibition at 50 µM [2, 7] | inhibition at 50 µM [2, 8] | inhibition at 50 µM [3] | other results
O=P(O)(O)C(F)(Cc1cncc(-c2ccc3[nH]ncc3c2)c1)P(=O)(O)O [Compound 7] | – | 28% | 19% | 20% | IC50 [1]: 640 nM; IC50 (hFPPS [4]): 150 nM
O=P(O)(O)C(Nc1cc(-c2ccc3[nH]ncc3c2)ccn1)P(=O)(O)O [Compound 14] | 45% | – | – | – | –
O=P(O)(O)C(Nc1ncccc1Br)P(=O)(O)O [Compound 36] | – | 15% | 26% | 25% | IC50 (hFPPS [4]): 180 nM
O=P(O)(O)C(Nc1cc(-c2ccc(Cl)cc2)ccn1)P(=O)(O)O [Compound 40] | 90% | – | – | – | –
O=P(O)(O)C(Nc1cc(-c2ccc(F)cc2)ccn1)P(=O)(O)O [Compound 42] | 95% | – | – | – | –
O=P(O)(O)C(O)(Cc1cccnc1)P(=O)(O)O [Risedronate, reference compound] | – | 9% | 17% | 16% | EC50 [6]: 80000 to 100000 nM

The next lines start with results.

inhibition at 1 µM (hFPPS [5]) | Compound | inhibition at 50 µM [2, 7] | inhibition at 50 µM [2, 8] | inhibition at 50 µM [3] | other results
35% | O=P(O)(O)C(Nc1cccc(-c2ccccc2)n1)P(=O)(O)O [Compound 12] | – | – | – | –
65% | O=P(O)(O)C(Nc1cc(-c2ccc3ccccc3c2)ccn1)P(=O)(O)O [Compound 26] | – | – | – | –
